Results: US20130012473A1, “COMBINED USE OF PHOSPHOLIPID AND SULFATE GROUPS-CARRYING POLYSACCHARIDES FOR INHIBITING METASTATIC SPREAD” (KTB TUMORFORSCHUNGSGESELLSCHAFT MBH, priority 2010, published 2013)

Legend:
[1] = system: B16.F10 melanoma cells; assay: Removal of exogenous LysoPC from the medium (PC/LysoPC and free choline assays); format: cell-based, mouse; conditions: in absence of the cells
Excerpt: Cell culture and LysoPC feeding: Mouse melanoma cell line B16.F10 (ATCC, CRL-6475) was passaged in vitro in DMEM as described before (Fritzsche, J. et al., Thromb. Haemost. 100:1166-1175 (2008)). Cells were routinely (monthly) tested to be negative of mycoplasms, their morphological appearance observed by microscopic means and examined for the expression of adhesion receptors and ligands by flow cytometry. LysoPC removal (1-Heptadecanoyl-2-hydroxy-sn-glycero-3-phosphocholine, (C17:0; HEP-LysoPC), Avanti Polar Lipids, Inc., or 1-Hexadecanoyl-sn-glycero-3-phosphocholine, (C16:0; HEX-LysoPC), Sigma, Taufkirchen, Germany was determined using 1×10^5 cells in 24-well tissue culture plates (Greiner BioOne, Frickenhausen, Germany). Non-cytotoxic LysoPC/BSA DMEM-solutions (FIG. 7 A) were prepared by adding 20-40 mg/ml bovine serum albumine (BSA, PAA Laboratories GmbH, Cölbe, Germany). Cell culture supernatants were collected from triplicates of LysoPC treated and untreated control wells. Cells were removed from tissue culture plates using trypsin/EDTA. […]
Determination of LysoPC concentration: LysoPC concentration was determined by an enzymatic PL (PC/LysoPC) assay containing phospholipase D and choline oxidase (mti diagnostics GmbH, Idstein, Germany). […]
B, C and D) Colorimetric assays for the quantification of LysoPC removal from the supernatant of B16.F10. […]

[2] = system: B16.F10 cells; assay: LysoPC-mediated toxicity, cell viability by BrdU assay; format: cell-based, mouse
Description: BrdU proliferation assay: Proliferation and viability were determined by BrdU and WST-1 assay (Roche Diagnostics GmbH, Penzberg, Germany) according to the manufacturer's instructions.
LysoPC was toxic towards B16.F10 cells (p<0.001) at physiological concentrations (≧150 μM) in culture medium (DMEM plus 10% FCS). Thus, different amounts of BSA were added to reduce the concentration of cellular assessable LysoPC (monomolecular and micellar dissolved) and to therefore reduce LysoPC toxicity. Viability of the tumor cells was determined by BrdU assay and adding 10 mg BSA/ml, reduced cell viability was evident above 300 μM LysoPC. Using 20 mg/ml, reduced cell viability was evident above 450 μM LysoPC. Thus, to avoid toxicity of exogenous LysoPC (150 μM to 900 μM) towards the tumor cells during the LysoPC-removal-assay (FIG. 1), addition of 20 mg-40 mg BSA/ml DMEM was essential.

[3] = system: VLA-4; assay: Flow cytometry, VLA-4 surface expression (anti-mouse CD49d mAb); format: cell-based; conditions: repeatedly incubated with 450 μM LysoPC for 13 days
Description: FIG. 3: Impact of exogenous LysoPC on the surface expression of VLA-4 or VCAM-1- and P-selectin-ligands. (A) Surface expression of VLA-4 on B16.F10 cells treated with 450 μM LysoPC for 13 days was controlled by flow cytometric analysis. […] FACS histograms (A-C) show one representative of three independent experiments. In all experiments cells only incubated with the respective FITC-conjugated detection antibody served as control.

## CCCCCCCCCCCCCCCCC(=O)OC[C@@H](O)COP(=O)([O-])OCC[N+](C)(C)C [LysoPC]
[1]
  LysoPC concentration in culture medium: not changed in absence of the cells
[2]; 10 mg BSA/ml added
  LysoPC concentration with reduced cell viability: above 300 μM
[2]; 20 mg/ml BSA added
  LysoPC concentration with reduced cell viability: above 450 μM
[2]; culture medium DMEM plus 10% FCS, no added BSA, p<0.001
  toxic LysoPC concentration: ≥ 150 µM
[3]
  VLA-4 receptor expression: did not influence VLA-4 receptor expression
